According to US4027016A, “Everninomicin antibacterial derivatives, electrochemical method for their manufacture, method for their use as antibacterial agents, and pharmaceutical compositions useful therefor” (Schering Corporation, priority 1976, dated 1977):
Values after ≈ are worked out from the molar mass of the structure shown. Counter-ions that a name gives are not always drawn. Like-named read-outs stand apart in the source and are kept apart here.

Assays:
[1] = tested on: gram-positive bacteria; test: Antibacterial activity against gram-positive bacteria (in words); type: cell-based; details: for antibacterial activity in vitro against gram-positive bacteria: e.g. Staphylococcus aureus, Staph. 11631, Staph. W., Streptococcus pyogenes C, Strep. pyogenes C-203, Bacillus subtilis
[2] = tested on: bacteria which are resistant to other antibacterial agents; test: Antibacterial activity against resistant bacteria (in words); type: cell-based; details: resistant to penicillin, penicillinase-resistant penicillins, tetracycline, macrolides such as erythromycin, lincomycin
[3] = tested on: bacteria; details: known compounds, cited from earlier work
[4] = pKa; type: physicochemical
[5] = tested on: Staphylococcus aureus Strain 209B; test: Microbiological Activity (in vitro), Staphylococcus aureus Strain 209B; type: cell-based; details: STRAIN209B
[6] = tested on: Staphylococcus aureus Strain Gray; test: Microbiological Activity (in vitro), Staphylococcus aureus Strain Gray; type: cell-based
[7] = tested on: Staphylococcus aureus Strain 59N; test: Microbiological Activity (in vitro), Staphylococcus aureus Strain 59N; type: cell-based; details: STRAIN59N
[8] = tested on: Staphylococcus aureus Strain Ziegler; test: Microbiological Activity (in vitro), Staphylococcus aureus Strain Ziegler; type: cell-based
[9] = tested on: Staphylococcus aureus Strain Wood; test: Microbiological Activity (in vitro), Staphylococcus aureus Strain Wood; type: cell-based
[10] = Peak Serum Levels in Dogs; type: in vivo, dog; details: for Peak Serum Levels in Dogs: 10 mg/kg i.m., single dose, agar diffusion assay of serum
Description: In determining peak serum levels, the animal tested (e.g. dog) is given a single dose of 10 mg/kg of the everninomicin D derivative, blood samples are taken periodically, and the serum thereof is assayed for antibacterial activity by an agardiffusion-assay as described by Weinstein et al., Antimicrobial Agents and Chemotherapy, p. 24 (1964).

[11] = tested on: gram-negative bacteria; test: Antibacterial activity against gram-negative bacteria (in words); type: cell-based; details: certain gram-negative bacteria
[12] = tested on: bacteria; test: Antibacterial activity, general (in words); details: when administered by injection

COCC1OC(OC2OCC3OC4(OCC(O)(C(C)OC)C5OCOC54)OC3C2OC)C(OC)C(O)C1OC1OC(C)C(OC)C(OC2OC(C)C3OC4(CC(O)C(OC5CC(OC6CC(C)(O)C(OC)C(C)O6)C(OC(=O)c6c(C)c(Cl)c(O)c(Cl)c6OC)C(C)O5)C(C)O4)OC3(C)C2O)C1O (stereo not shown) [everninomicin B-7]
inhibiting the growth of gram-positive bacteria [1]: antibacterial activity against gram-positive bacteria
antibacterial activity in vitro against gram-positive bacteria [1]: narrow spectrum antibacterial activity in vitro against gram-positive bacteria
antibacterial activity against resistant bacteria [2]: exhibit antibacterial activity against bacteria which are resistant to other antibacterial agents

COCC1OC(OC2OCC3OC4(OCC(O)C5OCOC54)OC3C2OC)C(OC)C(O)C1OC1OC(C)C(OC)C(OC2CC3(C)OC4(CC(O)C(OC5CC(O)C(OC(=O)c6c(C)c(Cl)c(O)c(Cl)c6OC)C(C)O5)C(C)O4)OC3C(C)O2)C1O (stereo not shown) [desevernitrose everninomicin C]
antibacterial activity ([3]; U.S. Pat. No. 3,920,629): having anti-bacterial activity

COCC1OC(OC2OCC3OC4(OCC(O)(C(C)OC)C5OCOC54)OC3C2OC)C(OC)C(O)C1OC1OC(C)C(OC)C(OC2OC(C)C3OC4(CC(O)C(OC5CC(OC6CC(C)(N=O)C(OC)C(C)O6)C(OC(=O)c6c(C)c(Cl)c(O)c(Cl)c6OC)C(C)O5)C(C)O4)OC3(C)C2O)C1O (stereo not shown) [nitrosoeverninomicin B]
antibacterial activity ([3]; U.S. Pat. No. 3,915,956): exhibit antibacterial activity

COCC1OC(OC2OCC3OC4(OCC(O)C5OCOC54)OC3C2OC)C(OC)C(O)C1OC1OC(C)C(OC)C(OC2CC3(C)OC4(CC(O)C(OC5CC(OC6CC(C)(NO)C(OC)C(C)O6)C(OC(=O)c6c(C)c(Cl)c(O)c(Cl)c6OC)C(C)O5)C(C)O4)OC3C(C)O2)C1O (stereo not shown) [hydroxylaminoeverninomicin C]
antibacterial activity ([3]; U.S. Pat. No. 3,915,956): exhibit antibacterial activity

COCC1OC(OC2OCC3OC4(OCC(O)(C(C)OC)C5OCOC54)OC3C2OC)C(OC)C(O)C1OC1OC(C)C(OC)C(OC2CC3(C)OC4(CC(O)C(OC5CC(O)C(OC(=O)c6c(C)c(Cl)c(O)c(Cl)c6OC)C(C)O5)C(C)O4)OC3C(C)O2)C1O (stereo not shown) [desevernitrose everninomicin D]
pKa [4]: 7.5
antibacterial activity ([3]; U.S. Pat. No. 3,920,629): having anti-bacterial activity

COCC1OC(OC2OCC3OC4(OCC(O)(C(C)OC)C5OCOC54)OC3C2OC)C(OC)C(O)C1OC1OC(C)C(OC)C(OC2CC3(C)OC4(CC(O)C(OC5CC(OC6CC(C)(O)C(OC)C(C)O6)C(OC(=O)c6c(C)c(Cl)c(O)c(Cl)c6OC)C(C)O5)C(C)O4)OC3C(C)O2)C1O [everninomicin D-7]
MIC [5]: 0.3 µg/mL (≈ 0.199 µM)
MIC [6]: 0.3 µg/mL (≈ 0.199 µM)
MIC [7]: 0.075 µg/mL (≈ 0.0497 µM)
MIC [8]: 0.75 µg/mL (≈ 0.497 µM)
MIC [9]: 0.75 µg/mL (≈ 0.497 µM)
Peak Serum Levels in Dogs [10]: 15-60
absorption and serum levels in the dog ([10]; when administered by injection): rapidly absorbed, producing high serum levels in the dog
inhibiting the growth of gram-positive bacteria [1]: particularly effective in inhibiting the growth of gram-positive bacteria
antibacterial activity in vitro against gram-positive bacteria [1]: narrow spectrum antibacterial activity in vitro against gram-positive bacteria
susceptibility of gram-negative bacteria [11]: certain gram-negative bacteria are also susceptible
antibacterial activity against resistant bacteria [2]: exhibit antibacterial activity against bacteria which are resistant to other antibacterial agents
antibacterial activity relative to precursor hydroxylaminoeverninomicin D [12]: antibacterial activity comparable to that of the precursor hydroxylaminoeverninomicin D

COCC1OC(OC2OCC3OC4(OCC(O)(C(C)OC)C5OCOC54)OC3C2OC)C(OC)C(O)C1OC1OC(C)C(OC)C(OC2OC(C)C3OC4(CC(O)C(OC5CC(O)C(OC(=O)c6c(C)c(Cl)c(O)c(Cl)c6OC)C(C)O5)C(C)O4)OC3(C)C2O)C1O (stereo not shown) [desevernitrose everninomicin B]
antibacterial activity ([3]; U.S. Pat. No. 3,920,629): having anti-bacterial activity

COCC1OC(OC2OCC3OC4(OCC(O)C5OCOC54)OC3C2OC)C(OC)C(O)C1OC1OC(C)C(OC)C(OC2CC3(C)OC4(CC(O)C(OC5CC(OC6CC(C)(N=O)C(OC)C(C)O6)C(OC(=O)c6c(C)c(Cl)c(O)c(Cl)c6OC)C(C)O5)C(C)O4)OC3C(C)O2)C1O (stereo not shown) [nitrosoeverninomicin C]
antibacterial activity ([3]; U.S. Pat. No. 3,915,956): exhibit antibacterial activity

COCC1OC(OC2OCC3OC4(OCC(O)(C(C)OC)C5OCOC54)OC3C2OC)C(OC)C(O)C1OC1OC(C)C(OC)C(OC2OC(C)C3OC4(CC(O)C(OC5CC(OC6CC(C)(NO)C(OC)C(C)O6)C(OC(=O)c6c(C)c(Cl)c(O)c(Cl)c6OC)C(C)O5)C(C)O4)OC3(C)C2O)C1O (stereo not shown) [hydroxylaminoeverninomicin B]
antibacterial activity ([3]; U.S. Pat. No. 3,915,956): exhibit antibacterial activity

COCC1OC(OC2OCC3OC4(OCC(O)(C(C)OC)C5OCOC54)OC3C2OC)C(OC)C(O)C1OC1OC(C)C(OC)C(OC2CC3(C)OC4(CC(O)C(OC5CC(OC6CC(C)(NO)C(OC)C(C)O6)C(OC(=O)c6c(C)c(Cl)c(O)c(Cl)c6OC)C(C)O5)C(C)O4)OC3C(C)O2)C1O (stereo not shown) [hydroxylaminoeverninomicin D]
antibacterial activity ([3]; U.S. Pat. No. 3,915,956): exhibit antibacterial activity

COCC1OC(OC2OCC3OC4(OCC(O)(C(C)OC)C5OCOC54)OC3C2OC)C(OC)C(O)C1OC1OC(C)C(OC)C(OC2CC3(C)OC4(CC(O)C(OC5CC(OC6CC(C)(NO)C(OC)C(C)O6)C(OC(=O)c6c(C)c(Cl)c(O)c(Cl)c6OC)C(C)O5)C(C)O4)OC3C(C)O2)C1O (stereo not shown) [Hydroxylaminoeverninomicin D Sodium salt, reference compound]
MIC [5]: 0.06 µg/mL
MIC [6]: 0.06 µg/mL
MIC [7]: 0.03 µg/mL
MIC [8]: 0.06 µg/mL
MIC [9]: 0.06 µg/mL
Peak Serum Levels in Dogs [10]: 20-30

COCC1OC(OC2OCC3OC4(OCC(O)(C(C)OC)C5OCOC54)OC3C2OC)C(OC)C(O)C1OC1OC(C)C(OC)C(OC2CC3(C)OC4(CC(O)C(OC5CC(OC6CC(C)(N=O)C(OC)C(C)O6)C(OC(=O)c6c(C)c(Cl)c(O)c(Cl)c6OC)C(C)O5)C(C)O4)OC3C(C)O2)C1O (stereo not shown) [nitrosoeverninomicin D]
antibacterial activity ([3]; U.S. Pat. No. 3,915,956): exhibit antibacterial activity

COCC1OC(OC2OCC3OC4(OCC(O)C5OCOC54)OC3C2OC)C(OC)C(O)C1OC1OC(C)C(OC)C(OC2CC3(C)OC4(CC(O)C(OC5CC(OC6CC(C)(O)C(OC)C(C)O6)C(OC(=O)c6c(C)c(Cl)c(O)c(Cl)c6OC)C(C)O5)C(C)O4)OC3C(C)O2)C1O (stereo not shown) [everninomicin C-7]
inhibiting the growth of gram-positive bacteria [1]: antibacterial activity against gram-positive bacteria
antibacterial activity in vitro against gram-positive bacteria [1]: narrow spectrum antibacterial activity in vitro against gram-positive bacteria
antibacterial activity against resistant bacteria [2]: exhibit antibacterial activity against bacteria which are resistant to other antibacterial agents
